According to patent US5041567A, “Antibacterial monic acid derivatives” (Beecham Group plc, priority 1982, dated 1991):
≈ marks a conversion by molar mass, not a printed value. Like-named read-outs stand apart in the source and are kept apart here.

Tests used:
M. suipneumoniae NB12 = test: MIC against mycoplasma in vitro; type: cell-based; conditions: Mesomycoplasma hyopneumoniae
M. suipneumoniae JF 435 = test: MIC against mycoplasma in vitro; type: cell-based; conditions: Mesomycoplasma hyopneumoniae, JF435, 144 h
M. suipneumoniae Str. 11 = test: MIC against mycoplasma in vitro; type: cell-based; conditions: Mesomycoplasma hyopneumoniae
[1] = tested on: M. suipneumoniae J2206/183^b; test: MIC against mycoplasma in vitro; type: cell-based; conditions: Mesomycoplasma hyopneumoniae, 144 h; M. suipneumoniae J2206/183^b; 6 days, 37° C.; read-out: MIC
M. suipneumoniae MS 16 = test: MIC against mycoplasma in vitro; type: cell-based; conditions: Mesomycoplasma hyopneumoniae, MS16, 144 h
M. suipneumoniae TAM 6N = test: MIC against mycoplasma in vitro; type: cell-based; conditions: Mesomycoplasma hyopneumoniae, TAM6N, 144 h; M. suipneumoniae TAM 6N; 6 days, 37° C.; read-out: MIC
[2] = tested on: M. suipneumoniae ATCC 25095; test: MIC against mycoplasma in vitro; type: cell-based; conditions: Mesomycoplasma hyopneumoniae, ATCC25095, 144 h
M. hyorhinis ATCC 25021 = test: MIC against mycoplasma in vitro; type: cell-based; conditions: Mesomycoplasma hyorhinis, ATCC25021, 144 h
[3] = tested on: M. hyosynoviae ATCC 25591; test: MIC against mycoplasma in vitro; type: cell-based; conditions: 144 h; M. hyosynoviae ATCC 25591; 6 days, 37° C.; read-out: MIC
[4] = tested on: M. bovigenitalium ATCC 14173; test: MIC against mycoplasma in vitro; type: cell-based; conditions: 144 h
M. dispar NCTC 10125 = test: MIC against mycoplasma in vitro; type: cell-based; conditions: 144 h
E. coli ESS = test: MIC against human bacteria in vitro; type: cell-based; conditions: Escherichia coli
P. mirabilis 889 = test: MIC against human bacteria in vitro; type: cell-based
K. aerogenes A = test: MIC against human bacteria in vitro; type: cell-based; conditions: Klebsiella aerogenes; K. aerogenes A; 5% chocolated horse blood agar, 18 hours; read-out: MIC
[5] = tested on: Ps. aeruginosa NCTC 10662; test: MIC against human bacteria in vitro; type: cell-based; conditions: Pseudomonas aeruginosa, NCTC10662; Ps. aeruginosa NCTC 10662; 5% chocolated horse blood agar, 18 hours; read-out: MIC
[6] = tested on: Pasteurella multocida 1633; test: MIC against human bacteria in vitro; type: cell-based; conditions: Pasteurella multocida 1633; 5% chocolated horse blood agar, 18 hours; read-out: MIC
[7] = tested on: Haemophilus influenzae Wy21; test: MIC against human bacteria in vitro; type: cell-based
[8] = tested on: Neisseria catarrhalis 1502; test: MIC against human bacteria in vitro; type: cell-based; conditions: Neisseria catarrhalis 1502; 5% chocolated horse blood agar, 18 hours; read-out: MIC
Bacillus subtilis 6633 = test: MIC against human bacteria in vitro; type: cell-based
[9] = tested on: Corynebacterium xerosis 9755; test: MIC against human bacteria in vitro; type: cell-based; conditions: Corynebacterium xerosis 9755; 5% chocolated horse blood agar, 18 hours; read-out: MIC
Sarcina lutea 8340 = test: MIC against human bacteria in vitro; type: cell-based; conditions: Micrococcus luteus; Sarcina lutea 8340; 5% chocolated horse blood agar, 18 hours; read-out: MIC
Staph. aureus Oxford = test: MIC against human bacteria in vitro; type: cell-based; conditions: Staphylococcus aureus; Staph. aureus Oxford; 5% chocolated horse blood agar, 18 hours; read-out: MIC
Staph. aureus Russell = test: MIC against human bacteria in vitro; type: cell-based; conditions: Staphylococcus aureus; Staph. aureus Russell; 5% chocolated horse blood agar, 18 hours; read-out: MIC
Staph. aureus W2827 = test: MIC against human bacteria in vitro; type: cell-based; conditions: Staphylococcus aureus; Staph. aureus W2827; 5% chocolated horse blood agar, 18 hours; read-out: MIC
Strep. faecalis I = test: MIC against human bacteria in vitro; type: cell-based; conditions: Enterococcus faecalis; Strep. faecalis I; 5% chocolated horse blood agar, 18 hours; read-out: MIC
Strep. agalactiae 2788-B = test: MIC against human bacteria in vitro; type: cell-based; conditions: Streptococcus agalactiae; Strep. agalactiae 2788-B; 5% chocolated horse blood agar, 18 hours; read-out: MIC
S. dublin S7 = test: MIC against veterinary bacteria in vitro; conditions: Salmonella enterica, S7, 18 h
Procedure: (§1) The activity of the compounds of the Examples against various veterinarily important bacteria, was assayed in vitro using two-fold serial dilutions in Diagnostic Sensitivity Test Agar inoculated with 10^4 organisms.

Past. multocida PA1 = test: MIC against veterinary bacteria in vitro; conditions: Pasteurella multocida, PA1, 18 h
Procedure: as §1

[10] = tested on: Corynebacterium pyogenes CY1; test: MIC against veterinary bacteria in vitro; conditions: CY1, 18 h
Procedure: as §1

[11] = tested on: Staph. aureus B4 (pen. resistant); test: MIC against veterinary bacteria in vitro; conditions: Staphylococcus aureus, 18 h
Procedure: as §1

[12] = tested on: Strep. suis (group D) SPS11; test: MIC against veterinary bacteria in vitro; conditions: Streptococcus suis, 18 h
Procedure: as §1

Strep. uberis SPU1 = test: MIC against veterinary bacteria in vitro; conditions: Streptococcus uberis, SPU1, 18 h
Procedure: as §1

[13] = tested on: Strep. pyogenes R80/421-A; test: MIC against human bacteria in vitro; type: cell-based; conditions: Streptococcus pyogenes; Strep. pyogenes R80/421-A; 5% chocolated horse blood agar, 18 hours; read-out: MIC
Strep. spp. 64/848-C = test: MIC against human bacteria in vitro; type: cell-based; conditions: Strep. spp. 64/848-C; 5% chocolated horse blood agar, 18 hours; read-out: MIC
Strep. agalactiae SPA1 = test: MIC against veterinary bacteria in vitro; conditions: Streptococcus agalactiae, SPA1, 18 h
Procedure: as §1

[14] = 144 h, M. suipneumoniae NB12, Friis broth, 0.9% agarose, 6 days, 37° C., read-out: MIC
[15] = M. suipneumoniae JF 435, 6 days, 37° C., read-out: MIC
[16] = 144 h, M. suipneumoniae Str. 11, 6 days, 37° C., read-out: MIC
[17] = M. suipneumoniae MS 16, 6 days, 37° C., read-out: MIC
[18] = M. suipneumoniae ATCC 25095, 6 days, 37° C., read-out: MIC
[19] = M. hyorhinis ATCC 25021, 6 days, 37° C., read-out: MIC
[20] = M. bovigenitalium ATCC 14173, 6 days, 37° C., read-out: MIC
[21] = M. dispar NCTC 10125, 6 days, 37° C., read-out: MIC
[22] = Haemophilus influenzae Wy21, 5% chocolated horse blood agar, 18 hours, read-out: MIC
[23] = Bacillus subtilis 6633, 5% chocolated horse blood agar, 18 hours, read-out: MIC

| Structure (SMILES) | MIC (M. suipneumoniae NB12; [14]) [µg/mL] | MIC [1] [µg/mL] | MIC (M. suipneumoniae TAM 6N) [µg/mL] | MIC [3] [µg/mL] | MIC (K. aerogenes A) [µg/mL] | MIC [5] [µg/mL] | MIC [6] [µg/mL] | MIC [9] [µg/mL] | MIC (Sarcina lutea 8340) [µg/mL] | MIC (Staph. aureus Oxford) [µg/mL] | MIC (Staph. aureus Russell) [µg/mL] | MIC (Staph. aureus W2827) [µg/mL] | MIC (Strep. faecalis I) [µg/mL] | MIC (Strep. agalactiae 2788-B) [µg/mL] | MIC (S. dublin S7) [µg/mL] | MIC (Past. multocida PA1) [µg/mL] | MIC [10] [µg/mL] | MIC [11] [µg/mL] | MIC [12] [µg/mL] | MIC (Strep. uberis SPU1) [µg/mL] | further results |
| --- | --- | --- | --- | --- | --- | --- | --- | --- | --- | --- | --- | --- | --- | --- | --- | --- | --- | --- | --- | --- | --- |
| C/C(=C\c1nc(C)c(C)o1)C[C@@H]1OC[C@H](C[C@@H]2O[C@H]2[C@@H](C)[C@H](C)O)[C@@H](O)[C@H]1O [Example 39, 4,5-Dimethyl-2-(1-normon-2-yl)oxazole A] | > 10 | > 10 | > 10 | > 10 | > 100 | > 100 | 50 (≈ 126 µM) | > 100 | > 100 | 100 (≈ 253 µM) | > 100 | > 100 | > 100 | > 100 | > 80 | 80 (≈ 202 µM) | > 80 | > 80 | > 80 | > 80 | MIC (M. suipneumoniae JF 435; [15]): > 10 µg/mL; MIC (M. suipneumoniae Str. 11; [16]): > 10 µg/mL; MIC (M. suipneumoniae MS 16; [17]): > 10 µg/mL; MIC [2, 18]: > 10 µg/mL; MIC (M. hyorhinis ATCC 25021; [19]): > 10 µg/mL; MIC [4, 20]: 5 µg/mL (≈ 12.6 µM); MIC (M. dispar NCTC 10125; [21]): > 10 µg/mL; MIC (E. coli ESS; 18 h): > 100 µg/mL; MIC (P. mirabilis 889; Proteus mirabilis, 889, 18 h): > 100 µg/mL; MIC [7, 22]: 2.5 µg/mL (≈ 6.32 µM); MIC [8]: 25 µg/mL (≈ 63.2 µM); MIC (Bacillus subtilis 6633; [23]): > 100 µg/mL |
| C/C(=C\c1ncc(-c2ccccc2[N+](=O)[O-])o1)C[C@@H]1OC[C@H](C[C@@H]2O[C@H]2[C@@H](C)[C@H](C)O)[C@@H](O)[C@H]1O [Example 26, 5-o-Nitrophenyl-2-(1-normon-2-yl)oxazole A] | – | 5 (≈ 10.2 µM) | 5 (≈ 10.2 µM) | 0.5 (≈ 1.02 µM) | > 128 | > 128 | 16 (≈ 32.8 µM) | > 128 | > 128 | 4 (≈ 8.19 µM) | 4 (≈ 8.19 µM) | 4 (≈ 8.19 µM) | > 128 | 2 (≈ 4.09 µM) | > 80 | 10 (≈ 20.5 µM) | > 80 | 2.5 (≈ 5.12 µM) | 10 (≈ 20.5 µM) | 0.156 (≈ 0.319 µM) | MIC (M. suipneumoniae NB12; NB12, 144 h): 2.5 µg/mL (≈ 5.12 µM); MIC (M. suipneumoniae JF 435): 2.5 µg/mL (≈ 5.12 µM); MIC (M. suipneumoniae Str. 11; STR.11, 144 h): 2.5 µg/mL (≈ 5.12 µM); MIC (M. suipneumoniae MS 16): 1 µg/mL (≈ 2.05 µM); MIC [2]: 2.5 µg/mL (≈ 5.12 µM); MIC (M. hyorhinis ATCC 25021): 2.5 µg/mL (≈ 5.12 µM); MIC [4]: 0.25 µg/mL (≈ 0.512 µM); MIC (M. dispar NCTC 10125): 1 µg/mL (≈ 2.05 µM); MIC (E. coli ESS; E. coli ESS, 5% chocolated horse blood agar, 18 hours, read-out: MIC): 8 µg/mL (≈ 16.4 µM); MIC (P. mirabilis 889; Proteus mirabilis, P. mirabilis 889, 5% chocolated horse blood agar, 18 hours, read-out: MIC): > 128 µg/mL; MIC ([7]; Haemophilus influenzae, WY21, 18 h): 0.25 µg/mL (≈ 0.512 µM); MIC (Bacillus subtilis 6633; Bacillus subtilis, 6633, 18 h): 0.25 µg/mL (≈ 0.512 µM); MIC [13]: 1 µg/mL (≈ 2.05 µM); MIC (Strep. spp. 64/848-C): 2 µg/mL (≈ 4.09 µM); MIC (Strep. agalactiae SPA1): 2.5 µg/mL (≈ 5.12 µM) |
| C/C(=C\c1nc(C)c(-c2ccccc2)o1)C[C@@H]1OC[C@H](C[C@@H]2O[C@H]2[C@@H](C)[C@H](C)O)[C@@H](O)[C@H]1O [Example 40, 4-Methyl-2-(1-normon-2-yl)-5-phenyloxazole A] | > 10 | > 10 | > 10 | > 10 | > 100 | > 100 | 100 (≈ 219 µM) | > 100 | > 100 | 100 (≈ 219 µM) | 100 (≈ 219 µM) | > 100 | > 100 | > 100 | > 80 | 80 (≈ 175 µM) | 80 (≈ 175 µM) | 80 (≈ 175 µM) | > 80 | 40 (≈ 87.4 µM) | MIC (M. suipneumoniae JF 435; [15]): > 10 µg/mL; MIC (M. suipneumoniae Str. 11; [16]): > 10 µg/mL; MIC (M. suipneumoniae MS 16; [17]): > 10 µg/mL; MIC [2, 18]: > 10 µg/mL; MIC (M. hyorhinis ATCC 25021; [19]): > 10 µg/mL; MIC [4, 20]: 10 µg/mL (≈ 21.9 µM); MIC (M. dispar NCTC 10125; [21]): > 10 µg/mL; MIC (E. coli ESS; 18 h): 100 µg/mL (≈ 219 µM); MIC (P. mirabilis 889; Proteus mirabilis, 889, 18 h): > 100 µg/mL; MIC [7, 22]: 50 µg/mL (≈ 109 µM); MIC [8]: 50 µg/mL (≈ 109 µM); MIC (Bacillus subtilis 6633; [23]): 100 µg/mL (≈ 219 µM); MIC (Strep. agalactiae SPA1): > 80 µg/mL |
